The values that follow are results of earlier work, collected in patent US9993454B2, “Solid nanoparticle formulation of water insoluble pharmaceutical substances with reduced Ostwald ripening” (Luminus Biosciences, Inc., priority 2006, dated 2018).

For this series the following is noted: most test systems.

As to `C/C(=C\c1csc(C)n1)[C@@H]1C[C@@H]2O[C@]2(C)CCC[C@H](C)[C@H](O)[C@@H](C)C(=O)C(C)(C)[C@@H](O)CC(=O)O1` [epothilone B], the “effectiveness relative to epothilone A” value was “approximately ten-time more effective”.
